Data from patent US20240336617A1, “Substituted Bimane Compounds and Methods of Use Thereof” (THE TRUSTEES OF THE UNIVERSITY OF PENNSYLVANIA, priority 2023, published 2024).

Assays:
[1] = Fluorescent quantum yield (QY) measurements; type: physicochemical; conditions: for Fluorescence QY: ACN/PBS buffer (1:1 v/v); for Fluorescence quantum yield: in ACN
Method: For each QY measurement, the incident excitation light spectrum was collected with 1 mL of solvent. […] Using the JASCO Quantum Yield Software, the dye QY was calculated by dividing the dye fluorescence intensity by the difference in incident light intensity in the presence and absence of dye. The minimum excitation wavelength for a full excitation incident spectrum using this setup is 360 nm.
Fluorescent quantum yield (QY) measurements. For each QY measurement, the incident excitation light spectrum was collected with 1 mL of solvent. After measuring the incident light intensity, dye (3 and 5a-5k) was added to the solvent from a concentrated stock solution to a final concentration of […] and the new spectrum (fluorescence intensity and new incident light intensity) was collected. Using the JASCO Quantum Yield Software, the dye QY was calculated by dividing the dye fluorescence intensity by the difference in incident light intensity in the presence and absence of dye. The minimum excitation wavelength for a full excitation incident spectrum using this setup is 360 nm.

[2] = Fluorescence (emission) measurements; type: physicochemical; conditions: for Emission λem: Table S12; for maximum emission wavelength (λem): 50:50 ACN/PBS, excitation at λabs;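 on all read-outs here: fluorescence emission spectra recorded on a spectrofluorometer, with each compound excited at its own absorption maximum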
Method: The fluorescence spectrum of each derivative (150 μL) was measured on a Photon Technology International (PTI) QuantaMaster™ 40 fluorescence spectrometer by excitation at the maximum absorption wavelength for each compound.
The fluorescence spectrum of each derivative (150 μL) was measured on a Photon Technology International (PTJ) QuantaMaster™ 40 fluorescence spectrometer by excitation at the maximum absorption wavelength for each compound.

[3] = Molar absorptivity determination; type: physicochemical;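 further: molar absorptivity derived from UV-Vis absorbance spectra recorded for each derivative on a spectrometer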
Method: The absorbance spectrum of each derivative (150 μL) was measured on a Thermo Scientific Genesys 150 UV-Vis spectrometer, using 50:50 ACN/PBS as a blank.
Molar absorptivity determination. […] The absorbance spectrum of each derivative (150 μL) was measured on a Thermo Scientific Genesys 150 UV-Vis spectrometer, using 50:50 ACN/PBS as a blank.

[4] = Absorbance measurements (UV-Vis); conditions: for λabs: ACN/PBS; for Absorbance Wavelength: ACN:PBS buffer (50:50 v/v)
Method: Samples were individually diluted to the final concentration of 25 μM (500 μL) using 50:50 acetonitrile in phosphate buffered saline (ACN/PBS). The absorbance spectrum of each derivative (150 μL) was measured on a Thermo Scientific Genesys 150 UV-Vis spectrometer, using 50:50 ACN/PBS as a blank.

[5] = Solvatochromic measurements; type: physicochemical; conditions: organic solvents of different polarity
Method: The remaining 850 μL solution was used to obtain fluorescence images under a handheld 365 nm UV lamp.
Solvatochromic measurements. […] The remaining 850 μL solution was used to obtain fluorescence images under a handheld 365 nm UV lamp.

[6] = Fluorescence lifetime measurements (TCSPC); type: physicochemical; conditions: for Fluorescence Lifetime: ACN/PBS buffer (1:1 v/v); for Lifetime: ACN/PBS buffer (50:50 v/v), excitation 340 nm
Method: Time correlated single photon counting (TCSPC) measurements of fluorescence lifetime decays for 100 μM solutions of dyes (6, 7c, 7e, 7f, and 7g) in ACN/PBS buffer (50:50 v/v) were collected with the PTI Quantamaster™ 40 using a pulsed LED with a maximum emission at 340 nm. Fluorescence emission was collected at the indicated wavelength for each dye with 20 nm slit widths. The instrument response function (IRF) was collected under identical conditions. Data analysis was performed with FluoFit software (PicoQuant GmbH; Berlin, Germany) using an exponential decay model.
Fluorescence lifetime measurements. Time correlated single photon counting (TCSPC) measurements of fluorescence lifetime decays for 100 μM solutions of dyes (3 and 5c-f) in ACN/PBS buffer (50:50 v/v) were collected with the PTI Quantamaster™ 40 using a pulsed LED with a maximum emission at 340 nm. Fluorescence emission was collected at the indicated wavelength for each dye with 20 nm slit widths. The instrument response function ([…]) was collected under identical conditions. Data analysis was performed with FluoFit software (PicoQuant GmbH; Berlin, Germany) using an exponential decay model. […] FIG. 64D Fluorescence spectra of 5i-5k. […] Fluorescence spectra were measured at their maximum absorption wavelength. FIGS. 66A-66K show representative QY acquisitions of 3 and 5a-f, 5h-k in ACN/PBS buffer (50:50). All had consistent excitation (360 nm) and spectral collection (350-800 nm) parameters. Final concentration of the probe is 500 μM. Black line indicates incident light and blue line indicates sample spectrum. […] All had consistent excitation (360 nm, slit width 10 nm) and spectral collection (350-800 nm) parameters. Final concentration of the probe is 500 µM. Black line indicates incident light and blue line indicates sample spectrum. FIG. 68: Effect of pH on absorption and emission of 5h and 5j. […] For pH screening of 5h and 5j, PBS buffer solutions were prepared, then adjusted the pH 2, 4, and 7 by adding 6 M hydrochloric acid, pH 9 and 11 by adding 5 M sodium hydroxide. Emission spectra were measured by the excitation wavelength 354 nm for 5h and 385 nm for 5j. […] Lifetime measurements with exponential fits shown at left and residuals after fitting shown at right.

[7] = pH measurements (absorption and emission); type: physicochemical; conditions: pH 2-11
Method: 10 mM stock solutions of 7h, 7j, and 7k in DMSO were individually diluted into ACN/PBS buffer (50:50 v/v) having different pH ranging from pH 2-11 with 25 μM (500 μL) of final concentration. For pH screening of 7h and 7j, PBS buffer solutions were prepared, then adjusted the pH 2, 4, and 7 by adding 6 M hydrochloric acid, pH 9 and 11 by adding 5 M sodium hydroxide. For pH screening of 7k, pH 4.4 and 7.4 were prepared by citric acid/phosphate buffer. Then, the absorption and fluorescence spectra were recorded by using Thermo Scientific Genesys 150 UV-Vis spectrometer, followed by PTI QuantaMaster™ 40 fluorescence spectrometer by excitation with maximum absorption wavelength.
pH measurements. 10 mM stock solutions of 5h and 5j in DMSO were individually diluted into ACN/PBS buffer (50:50 v/v) having different pH ranging from pH 2-11 with 25 µM (500 μL) of final concentration. For pH screening of 5h and 5j, PBS buffer solutions were prepared, then adjusted the pH 2, 4, and 7 by adding 6 M hydrochloric acid, pH 9 and 11 by adding 5 M sodium hydroxide. Then, we have recorded the absorption and fluorescence spectra by using Thermo Scientific Genesys 150 UV-Vis spectrometer, followed by PTI QuantaMaster™ 40 fluorescence spectrometer by excitation with maximum absorption wavelength.

[8] = 25 μM in ACN/PBS buffer (1:1 v/v), pH 7.4
[9] = ACN/PBS buffer (1:1 v/v), pH 7.4
[10] = in ACN, at maximum absorption wavelength

SMILES | Fluorescence QY [1] [%] | Fluorescence quantum yield [1] [%] | Fluorescence quantum yield ([1]; Table S12) [%] | Emission λmax [2, 8] [nm] | Stokes shift ([2]; ACN/PBS buffer (1:1 v/v)) [nm] | Stokes shift ([2]; in ACN) [nm] | Molar Absorptivity (ε) [3, 9] [M⁻¹ cm⁻¹] | Molar Absorptivity (ε) [3, 10] [M⁻¹ cm⁻¹] | Absorbance λmax ([4]; 25 μM in ACN) [nm] | Absorbance λmax [4, 8] [nm] | λabs [4] [nm] | Absorbance Wavelength ([4]; Table 11) [nm] | Absorbance Wavelength ([4]; Table S14) [nm] | solvatochromism / environmental sensitivity [5] | Fluorescence Lifetime [6] [ns] | Lifetime ([6]; Table 4) [ns] | Lifetime ([6]; Table S13) [ns] | Emission λmax ([2]; 25 μM in ACN) [nm] | Emission λem ([2]; 25 μM in ACN) [nm] | maximum emission wavelength (λem) [2] [nm] | other results
Cc1c(C)n2c(/C=C/c3ccccc3)c(C)c(=O)n2c1=O [Compound 7e, (E)-2,3,6-trimethyl-5-styryl-1H,7H-pyrazolo[1,2-a]pyrazole-1,7-dione] | 2.5 | 3.1 | 3.1 | 503 | 182 | 176 | 23959 | 32724 | 316 | 321 | 321 | 321 | 321 | no significant solvatochromism | 1.02 | 1.02 ± 0.004 | 1.02 ± 0.004 | – | – | – | –
Cc1ccc(/C=C/c2c(C)c(=O)n3c(=O)c(C)c(C)n23)cc1 [Compound 7f, (E)-2,3,6-trimethyl-5-(4-methylstyryl)-1H,7H-pyrazolo[1,2-a]pyrazole-1,7-dione] | 3.0 | 3.4 | 3.4 | 503 | 171 | 165 | 21164 | 24426 | 325 | 332 | – | 332 | 332 | – | 1.28 | 1.28 ± 0.004 | 1.28 ± 0.004 | – | – | – | –
COP(=O)(Cc1c(C)c(=O)n2c(=O)c(C)c(C)n12)OC [Compound 6, dimethyl ((2,5,6-trimethyl-1,7-dioxo-1H,7H-pyrazolo[1,2-a]pyrazol-3-yl)methyl)phosphonate] | 64.6 | 77.7 | 77.7 | 464 | 80 | 57 | 7902 | 6121 | 375 | 384 | – | – | – | no significant environmental sensitivity | 2.32 | 2.32 ± 0.01 | 2.32 ± 0.01 | 432 | 432 | 464 | fluorescence quantum yield (QY) ([1]; in ACN/PBS): 64.6%; fluorescent lifetime ([6]; ACN/PBS): 2.32 ns
Cc1c(C)n2c(/C=C/c3ccc(C#N)cc3)c(C)c(=O)n2c1=O [Compound 7b, (E)-4-(2-(2,5,6-trimethyl-1,7-dioxo-1H,7H-pyrazolo[1,2-a]pyrazol-3-yl)vinyl)benzonitrile] | 0.8 | 1.4 | 1.4 | 520 | 200 | 206 | 38995 | 43238 | 316 | 320 | 320 | 320 | 320 | no significant solvatochromism | – | – | – | 522 | 522 | – | –
Cc1c(C)n2c(/C=C/c3ccc(O)cc3)c(C)c(=O)n2c1=O [Compound 7h, (E)-3-(4-hydroxystyryl)-2,5,6-trimethyl-1H,7H-pyrazolo[1,2-a]pyrazole-1,7-dione] | 2.3 | 3.1 | 3.1 | 506 | 152 | 144 | 31514 | 29910 | 342 | 354 | – | 348 | 354 | – | – | – | – | – | – | 505 | pH effects on absorption and emission [7]: red-shifted absorption at pH 11 with a reduced QY, but no shift in emission
Cc1c(C)n2c(/C=C/c3ccc(F)cc3)c(C)c(=O)n2c1=O [Compound 7c, (E)-3-(4-fluorostyryl)-2,5,6-trimethyl-1H,7H-pyrazolo[1,2-a]pyrazole-1,7-dione] | 2.5 | 2.8 | 2.8 | 502 | 181 | 177 | 23796 | 28940 | 315 | 321 | – | 321 | 321 | – | 1.07 | 1.07 ± 0.003 | 1.07 ± 0.003 | – | – | – | –
